Earlier results in patent US20110311619A1 (Ethypharm, priority 2008, published 2011).

mean plasma concentration (dose of 300 mg fenofibrate per day): roughly 15 μg/ml | plasma elimination half-life (in vivo): roughly 20 hours | time after ingestion at which maximum plasma concentration is reached (on average, after ingestion of the drug): five
Structure (SMILES): CC(C)(Oc1ccc(C(=O)c2ccc(Cl)cc2)cc1)C(=O)O [fenofibric acid]
